Columns and labels:
Format in all cases: in vivo
Barnyardgrass [1] = experiment: Post-emergence herbicidal activity, greenhouse; conditions: Table I, 4 WAT
Excerpt: (§1) A good grade of top soil is placed in aluminum pans having holes in the bottom and compacted to a depth of 0.95 to 1.27 cm. from the top of the pan. A predetermined number of seeds of each of several dicotyledonous and monocotyledonous annual plant species and/or vegetative propagules for the perennial plant species are placed on the soil and pressed into the soil surface. The seeds and/or vegetative propagules are covered with soil and leveled. The pans are then placed on a sand bench in the greenhouse and watered from below as needed. After the plants reach the desired age (two to three weeks), each pan except for the control pans is removed individually to a spraying chamber and sprayed by means of an atomizer operating at a positive air pressure of approximately 1.46 kg/cm^2 absolute. The atomizer contains 6 ml. of a solution or suspension of the chemical. In that 6 ml., is an amount of a cyclohexanone emulsifying agent mixture to give a spray solution or suspension which contains about 0.4% by weight of the emulsifier. The spray solution or suspension contains a sufficient amount of the candidate chemical in order to give application rates corresponding to those set forth in the tables. The spray solution is prepared by taking an aliquot of a 1.0% by weight stock solution or suspension of the candidate chemical in an organic solvent such as acetone or tetrahydrofuran or in water. The emulsifying agent employed is a mixture comprising 35 weight percent butylamine dodecylbenzene sulfonate and 65 weight percent of a tall oil ethylene oxide condensate having about 11 moles of ethylene oxide per mole of tall oil. The pans are returned to the greenhouse and watered as before and the injury to the plants as compared to the control is observed at approximately two and four weeks as indicated in the tables under WAT and the results recorded. In some instances, the two-week observations are omitted.
(§2) The post-emergence herbicidal activity index used in Table I is as follows:
(§3) The plant species utilized in these tests are identified by letter in accordance with the following legend: […]

Canada Thistle [2] = experiment: Post-emergence herbicidal activity, greenhouse; conditions: Table I, 4 WAT
Excerpt: as §1, §2, §3

Cocklebur [3] = experiment: Post-emergence herbicidal activity, greenhouse; conditions: Table I, 4 WAT
Excerpt: as §1, §2, §3

Downy Brome [4] = experiment: Post-emergence herbicidal activity, greenhouse; conditions: Table I, 4 WAT
Excerpt: as §1, §2, §3

Johnsongrass [5] = experiment: Post-emergence herbicidal activity, greenhouse; conditions: Table I, 4 WAT
Excerpt: as §1, §2, §3

Lambsquarters [6] = experiment: Post-emergence herbicidal activity, greenhouse; conditions: Table I, 4 WAT
Excerpt: as §1, §2, §3

Morningglory [7] = experiment: Post-emergence herbicidal activity, greenhouse; conditions: Table I, 4 WAT
Excerpt: as §1, §2, §3

Quackgrass [8] = experiment: Post-emergence herbicidal activity, greenhouse; conditions: Table I, 4 WAT
Excerpt: as §1, §2, §3

Smartweed [9] = experiment: Post-emergence herbicidal activity, greenhouse; conditions: Table I, 4 WAT
Excerpt: as §1, §2, §3

Velvetleaf [10] = experiment: Post-emergence herbicidal activity, greenhouse; conditions: Table I, 4 WAT
Excerpt: as §1, §2, §3

Yellow Nutsedge [11] = experiment: Post-emergence herbicidal activity, greenhouse; conditions: Table I, 4 WAT
Excerpt: as §1, §2, §3

Barnyardgrass [12] = experiment: Pre-emergent herbicidal activity; conditions: Table III; 11.2 kg/h; 2 WAT
Excerpt: (§4) A good grade of top soil is placed in aluminum pans and compacted to a depth of 0.95 to 1.27 cm. from the top of each pan. A predetermined number of seeds or vegetative propagules of each of several plant species are placed on top of the soil in each pan and then pressed down. Herbicidal compositions prepared as in the previous example are applied by admixture with or incorporation in the top layer of soil.
(§5) In this method, the soil required to cover the seeds and propagules is weighed and admixed with a herbicidal composition containing a known amount of the active ingredient (compound of this invention). The pans are then filled with the admixture and leveled. Watering is carried out by permitting the soil in the pans to absorb moisture through apertures in the pan bottoms. The seed and propagule containing pans are placed on a wet sand bench and maintained for approximately two weeks under ordinary conditions of sunlight and watering. At the end of this period, the number of emerged plants of each species is noted and compared to an untreated control.
(§6) The pre-emergent herbicidal activity index used below is based upon average percent control of each species as follows:
(§7) Plant species in the table are identified by the same code letters used in the previous example.

Canada Thistle [13] = experiment: Pre-emergent herbicidal activity; conditions: Table III; 11.2 kg/h; 2 WAT
Excerpt: as §4, §5, §6, §7

Cocklebur [14] = experiment: Pre-emergent herbicidal activity; conditions: Table III; 11.2 kg/h; 2 WAT
Excerpt: as §4, §5, §6, §7

Downy Brome [15] = experiment: Pre-emergent herbicidal activity; conditions: Table III; 11.2 kg/h; 2 WAT
Excerpt: as §4, §5, §6, §7

Johnsongrass [16] = experiment: Pre-emergent herbicidal activity; conditions: Table III; 11.2 kg/h; 2 WAT
Excerpt: as §4, §5, §6, §7

Lambsquarters [17] = experiment: Pre-emergent herbicidal activity; conditions: Table III; 11.2 kg/h; 2 WAT
Excerpt: as §4, §5, §6, §7

Morningglory [18] = experiment: Pre-emergent herbicidal activity; conditions: Table III; 11.2 kg/h; 2 WAT
Excerpt: as §4, §5, §6, §7

Quackgrass [19] = experiment: Pre-emergent herbicidal activity; conditions: Table III; 11.2 kg/h; 2 WAT
Excerpt: as §4, §5, §6, §7

Smartweed [20] = experiment: Pre-emergent herbicidal activity; conditions: Table III; 11.2 kg/h; 2 WAT
Excerpt: as §4, §5, §6, §7

Velvetleaf [21] = experiment: Pre-emergent herbicidal activity; conditions: Table III; 11.2 kg/h; 2 WAT
Excerpt: as §4, §5, §6, §7

Yellow Nutsedge [22] = experiment: Pre-emergent herbicidal activity; conditions: Table III; 11.2 kg/h; 2 WAT
Excerpt: as §4, §5, §6, §7

O=C(CN(CP(=O)(Oc1ccccc1)Oc1ccccc1)SSC1CCCCC1)OCc1ccccc1 [III, Glycine, N-(cyclohexyldithio)-N-[(diphenoxyphosphinyl)methyl]-, phenylmethyl ester]
post-emergence herbicidal activity index (Barnyardgrass [1]; 5.6 kg/h): 2 (50-74% control)
post-emergence herbicidal activity index (Barnyardgrass [1]; 11.2 kg/h): 2 (50-74% control)
post-emergence herbicidal activity index (Canada Thistle [2]; 5.6 kg/h): 1 (25-49% control)
post-emergence herbicidal activity index (Canada Thistle [2]; 11.2 kg/h): 0 (0- 24% control)
post-emergence herbicidal activity index (Cocklebur [3]; 5.6 kg/h): 1 (25-49% control)
post-emergence herbicidal activity index (Cocklebur [3]; 11.2 kg/h): 2 (50-74% control)
post-emergence herbicidal activity index (Downy Brome [4]; 5.6 kg/h): 1 (25-49% control)
post-emergence herbicidal activity index (Downy Brome [4]; 11.2 kg/h): 1 (25-49% control)
post-emergence herbicidal activity index (Johnsongrass [5]; 5.6 kg/h): 1 (25-49% control)
post-emergence herbicidal activity index (Johnsongrass [5]; 11.2 kg/h): 1 (25-49% control)
post-emergence herbicidal activity index (Lambsquarters [6]; 5.6 kg/h): 2 (50-74% control)
post-emergence herbicidal activity index (Lambsquarters [6]; 11.2 kg/h): 2 (50-74% control)
post-emergence herbicidal activity index (Morningglory [7]; 5.6 kg/h): 1 (25-49% control)
post-emergence herbicidal activity index (Morningglory [7]; 11.2 kg/h): 2 (50-74% control)
post-emergence herbicidal activity index (Quackgrass [8]; 5.6 kg/h): 1 (25-49% control)
post-emergence herbicidal activity index (Quackgrass [8]; 11.2 kg/h): 2 (50-74% control)
post-emergence herbicidal activity index (Smartweed [9]; 5.6 kg/h): 2 (50-74% control)
post-emergence herbicidal activity index (Smartweed [9]; 11.2 kg/h): 1 (25-49% control)
post-emergence herbicidal activity index (Velvetleaf [10]; 5.6 kg/h): 0 (0- 24% control)
post-emergence herbicidal activity index (Velvetleaf [10]; 11.2 kg/h): 1 (25-49% control)
post-emergence herbicidal activity index (Yellow Nutsedge [11]; 5.6 kg/h): 0 (0- 24% control)
post-emergence herbicidal activity index (Yellow Nutsedge [11]; 11.2 kg/h): 0 (0- 24% control)
pre-emergent herbicidal activity index (Barnyardgrass [12]): 0 (0-24% control)
pre-emergent herbicidal activity index (Canada Thistle [13]): 1 (25-49% control)
pre-emergent herbicidal activity index (Cocklebur [14]): 0 (0-24% control)
pre-emergent herbicidal activity index (Downy Brome [15]): 0 (0-24% control)
pre-emergent herbicidal activity index (Johnsongrass [16]): 0 (0-24% control)
pre-emergent herbicidal activity index (Lambsquarters [17]): 0 (0-24% control)
pre-emergent herbicidal activity index (Morningglory [18]): 0 (0-24% control)
pre-emergent herbicidal activity index (Quackgrass [19]): 0 (0-24% control)
pre-emergent herbicidal activity index (Smartweed [20]): 0 (0-24% control)
pre-emergent herbicidal activity index (Velvetleaf [21]): 0 (0-24% control)
pre-emergent herbicidal activity index (Yellow Nutsedge [22]): 0 (0-24% control)

Source: US4401604A, “Process for preparing thiosulfenamide derivatives of N-phosphonomethylglycine triesters” (Monsanto Company, priority 1981, dated 1983)
